Laboratory results from PubChem BioAssay (NCI).
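In this assay, cells in 96-well plates receive the compound at five concentrations for 48 hours. Endpoints are linearly interpolated between the surrounding concentrations. TGI: total growth inhibition.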 Where a SMILES comes first, the peptide text is derived from it. The star is where a group is joined. Cbz = O=C(OCc1ccccc1)*; Boc = CC(C)(C)OC(=O)*; OSu = O=C1CCC(=O)N1O*; Bn = c1ccc(C*)cc1

Experiments:
Assay in all cases: NCI tumour cell line growth inhibition, 48 h
HS 578T breast = system: HS 578T breast
HOP-62 NSCLC = system: HOP-62 NSCLC
DU-145 prostate = system: DU-145 prostate
CAKI-1 renal = system: CAKI-1 renal
NCI-H460 lung = system: NCI-H460 lung
OVCAR-4 ovarian = system: OVCAR-4 ovarian
SN12C renal = system: SN12C renal
NCI/ADR-RES ovarian = system: NCI/ADR-RES ovarian
SK-MEL-5 melanoma = system: SK-MEL-5 melanoma
OVCAR-5 ovarian = system: OVCAR-5 ovarian
UACC-62 melanoma = system: UACC-62 melanoma
SNB-19 CNS = system: SNB-19 CNS
IGROV1 ovarian = system: IGROV1 ovarian
HCT-15 colon = system: HCT-15 colon
SF-539 CNS = system: SF-539 CNS

Structure (SMILES)	TGI (HS 578T breast) [µM]	TGI (HOP-62 NSCLC) [µM]	TGI (DU-145 prostate) [µM]	TGI (CAKI-1 renal) [µM]	TGI (NCI-H460 lung) [µM]	TGI (OVCAR-4 ovarian) [µM]	TGI (SN12C renal) [µM]	TGI (NCI/ADR-RES ovarian) [µM]	TGI (SK-MEL-5 melanoma) [µM]	TGI (OVCAR-5 ovarian) [µM]	TGI (UACC-62 melanoma) [µM]	TGI (SNB-19 CNS) [µM]	TGI (IGROV1 ovarian) [µM]	TGI (HCT-15 colon) [µM]	TGI (SF-539 CNS) [µM]
CCN(CC)CCNC(=O)c1cc2cc(NC(=O)c3cc4cc(NC(=O)c5cc6cc(N)ccc6[nH]5)ccc4[nH]3)ccc2[nH]1	> 100	> 100	> 100	> 100	> 100	> 100	> 100	> 100	> 100	> 100	> 100	> 100	> 100	> 100	–
O=C(O)CCc1ccc2c(c1)C(=O)CC2	–	> 100	> 100	–	> 100	> 100	> 100	> 100	> 100	> 100	> 100	> 100	> 100	> 100	> 100
c1ccc(-n2nc3ccc4nonc4c3n2)cc1	–	> 100	> 100	> 100	> 100	> 100	> 100	> 100	> 100	> 100	> 100	> 100	> 100	> 100	> 100
COc1ccc2cc(C(=O)O)ccc2c1OC	> 100	> 100	> 100	> 100	> 100	–	> 100	> 100	> 100	> 100	> 100	> 100	> 100	> 100	> 100
O=C(N=Nc1cccc(Cl)c1)NNc1cccc(Cl)c1	–	22.2	41.8	91.1	34.2	52.6	35.9	–	38.4	46.5	24.1	> 100	43.3	75.7	–
CC(=O)NC1=C(NCCN(C)C)C(=O)c2ccccc2C1=O	–	> 50	–	–	> 50	17.7	27.8	–	14.1	–	22.1	> 50	> 50	20.5	34.4
c1ccc(CNCCCCNCCCNCc2ccccc2)cc1	29.7	60.8	49.3	40.3	30.2	38.2	36.4	> 100	32.5	> 100	32.4	32.7	26.7	39.4	–
CCc1c(Cc2[nH]c(Cc3[nH]c(C=O)c(C)c3CC)c(CC)c2CC)[nH]c(C=O)c1C	–	> 100	–	> 100	> 100	> 1	> 100	–	> 100	–	> 100	> 100	–	> 100	> 100
Cc1ncc2c(=O)c3c(oc2n1)c1ccccc1n3Cc1ccccc1	> 100	79.5	> 100	> 100	> 100	–	> 100	> 100	> 100	> 100	93.9	> 100	> 100	> 100	> 100
CC(C)(C)OC(=O)NC(Cc1ccc(OCc2ccccc2)cc1)C(=O)NC(CCCCNC(=O)OCc1ccccc1)C(=O)ON1C(=O)CCC1=O (stereo not given) (Boc-Tyr(Bn)-Lys(Cbz)-OSu; configuration not given here)	67.1	42.8	–	–	50.8	–	32.9	–	48	76.7	33.2	35.3	33.1	32	–
c1ccc([P+](Cc2ccccc2C[P+](c2ccccc2)(c2ccccc2)c2ccccc2)(c2ccccc2)c2ccccc2)cc1	> 100	> 100	> 100	> 100	> 100	–	> 100	> 100	> 100	> 100	> 100	> 100	> 100	> 100	> 100
C[n+]1c(-c2ccc(/C=N/NC(=O)C(=O)N/N=C/c3ccc(-c4cn5ccsc5[n+]4C)cc3)cc2)cn2ccsc21	> 100	> 100	–	–	> 100	> 100	> 100	> 100	> 100	> 100	–	> 100	> 100	> 100	> 100
CO[C@@H]1C=C[C@@]23c4cc5c(cc4C(=O)O[C@H]2CN(C)[C@H]3C1)OCO5	–	–	–	–	> 100	> 100	> 100	–	> 100	> 100	> 100	> 100	> 100	–	> 100
Oc1ccc(N=C2CCC(=C(c3ccccc3)c3ccc(Nc4ccc(O)cc4)cc3)CC2)cc1	–	–	> 100	> 100	> 100	> 100	> 100	> 100	> 100	> 100	> 100	> 100	–	> 100	> 100
Nc1cc(N2CCCC2)nc(=O)n1-c1ccccc1	–	> 100	> 100	> 100	> 100	> 100	> 100	> 100	> 100	> 100	–	> 100	> 100	> 100	> 100
N#C/C(C(=O)Nc1ccc(Cl)cc1)=C(/N)N1CCCCC1	–	> 100	> 100	> 100	> 100	–	> 100	> 100	> 100	> 100	> 100	> 100	> 100	> 100	> 100
CC1Oc2c(c(=O)oc3ccccc23)[C@@]1(C)CC1C[C@H](C)C(=O)O1 (stereo not given in full)	> 100	> 100	> 100	38.1	–	–	–	> 100	> 100	> 100	42.4	> 100	> 100	> 100	64.2
